Marks after values point to notes of the source that are not given here.
How the values were obtained:
Type in all cases: in vivo, mouse
[1] = system: des-acyl and acyl-modified ghrelin peptides in the stomach; test: Molecular forms of stomach ghrelin peptide after ingestion (HPLC fractionation, C-RIA); conditions: mice; for stomach ghrelin modified by the acyl group corresponding to the ingested lipid: HPLC peak; for C6:0-ghrelin (n-hexanoyl ghrelin) concentration in the stomach / C8:0-ghrelin (n-octanoyl ghrelin) concentration in the stomach / C10:0-ghrelin (n-decanoyl ghrelin) concentration in the stomach / Des-acyl ghrelin concentration in the stomach / C10:1-ghrelin (n-decenoyl ghrelin) concentration in the stomach: 5% (w/w) in chow, 14 days, from 0.2 mg wet weight, C-RIA after HPLC, mean ± S.D.; for C10:1-ghrelin (n-decenoyl ghrelin) concentration in the stomach: fraction holds unidentified ghrelin molecules too
Method: (§1) Male C57BL/6J mice weighing 20-25 g (10-12 week old) were maintained under controlled temperature (21-23° C.) and light conditions (light on 0700-1900) with ad libitum access to food and water. Medium-chain fatty acids (MCFAs), i.e., n-hexanoic, n-octanoic, and n-lauric acids (Sigma-Aldrich Japan Co., Ltd., Tokyo), were dissolved in water at 5 mg/ml. n-Palmitic acid, a common long-chain fatty acid (LCFA) (Sigma-Aldrich Japan Co., Ltd., Tokyo), was mixed into standard laboratory chow (CLEA Rodent Diet CE-2, CLEA Japan, Osaka) at a concentration of 1% (w/w), to equilibrate the total intake amount of this lipid to the other medium-chain fatty acids contained in the food. Medium- and long-chain triglycerides (MCTs and LCTs), i.e., glyceryl trihexanoate, trioctanoate, tridecanoate and tripalmitates (Wako Pure Chemical, Osaka, Japan), were mixed with standard laboratory chow at a concentration of 5% (w/w). Whole stomach tissues from treated mice were collected at the indicated times (0-14 days) after ingesting the free fatty acid- or triacylglyceride-containing food. Fresh tissue samples from these mice were diced and boiled for 5 minutes in a 10-fold volume of water. The tissue-containing solution was then adjusted to 1M acetic acid after cooling and then homogenized with a Polytron mixer. The supernatant, obtained after centrifugation at 15,000 rpm for 15 minutes, was then lyophilized. The lyophilized material was dissolved in RIA buffer and subjected to ghrelin C- and N-RIA. To elucidate the forms of ghrelin peptides modified by different acyl groups, extracted stomach peptides were collected using a Sep-Pak Plus C18 cartridge (Waters, Milford, Mass.) and subjected to C18 RP-HPLC (Symmetry 300, 3.9×150 mm, Waters) with a linear gradient from 10 to 60% CH3CN/0.1% TFA at a flow rate of 1.0 ml/minute for 40 minutes. Five hundred micro-litter fractions were collected. Ghrelin peptide content in each fraction was measured by ghrelin C- and N-RIA as described above. Degradation of ghrelin was not observed during the extraction.
To clarify what molecular forms of ghrelin peptide are present after the ingestion of triacylglycerol (triacylglycerin), peptide extracts from stomachs of mouse fed chow containing glyceryl trihexanoate (C6:0-MCT), glyceryl trioctanoate (C8:0-MCT), glyceryl tridecanoate (C10:0-MCT), and standard laboratory chow (Control) were fractionated by HPLC, and measured for ghrelin immunoreactivity by C-RIA. […] Based on the observed retention times of synthetic acyl-modified ghrelin peptides, peaks a, d, h, and k corresponded to des-acyl ghrelin, peaks b, f, i, and 1 corresponded to n-octanoyl (C8:0) ghrelin, and peaks c, g, j, and m corresponded to n-decenoyl (10:1) ghrelin.
Male C57BL/6J mice were fed chow mixed with 5% (w/w) glyceryl trihexanoate (C6:0-MCT), glyceryl trioctanoate (C8:0-MCT), or glyceryl tri-decanoate (C10:0-MCT) for 14 days. The concentrations of des-acyl ghrelin, n-hexanoyl ghrelin (C6:0-ghrelin), n-octanoyl ghrelin (C8:0-ghrelin), n-decenoyl ghrelin (C10:1-ghrelin), and n-decanoyl ghrelin (C10:0-ghrelin) from stomach samples (from 0.2 mg wet weight) were measured by ghrelin C-RIA after HPLC fractionation.

[2] = system: acyl-modified and total ghrelin in the stomach; test: Stomach ghrelin content after free fatty acid ingestion (N-RIA / C-RIA); conditions: mice, 14 days; for total ghrelin concentration in the stomach vs control: C-RIA
Method: (§2) RIAs specific for ghrelin were performed as previously described [D2]. Two polyclonal antibodies were raised in rabbits against the N-terminal (Gly^1-Lys^11 with O-n-octanoylation at Ser^3) and C-terminal (Gln^13-Arg^28) fragments of rat ghrelin. RIA incubation mixtures were composed of 100 μl of either standard ghrelin or an unknown sample, with 200 μl of antiserum diluted in RIA buffer (50 mM sodium phosphate buffer (pH 7.4), 0.5% BSA, 0.5% Triton-X100, 80 mM sodium chloride (NaCl), 25 mM disodium ethylenediamine-tetraacetate (EDTA 2-Na) and 0.05% sodium azide (NaN3)) containing 0.5% normal rabbit serum. Anti-rat ghrelin [D1-D11] and anti-rat ghrelin [D13-D28] antisera were used at final dilutions of 1/3,000,000 and 1/20,000, respectively. After a 12-hour incubation at 4° C., 100 μl of ^125I-labeled ligand (20,000 cpm) was added for an additional 36-hour incubation. Then, 100 μl of anti-rabbit goat antibody was added. After incubation for 24 hours at 4° C., free and bound tracers were separated by centrifugation at 3,000 rpm for 30 min. Pellet radioactivity was quantified in a gamma counter (ARC-600, Aloka, Tokyo). All assays were performed in duplicate at 4° C.
Stomachs collected from either mice or rats were washed two times in phosphate buffered physiological saline (pH 7.4). After measuring the wet weight of each sample, the whole stomach tissue was diced and boiled for 5 minutes in a 10-fold volume of water to inactivate intrinsic proteases. After cooling on ice, boiled samples were adjusted to 1 M acetic acid-20 mM hydrochloric acid (HCl). Peptides were extracted following homogenization with a Polytron mixer (PT 6100, Kinematica AG, Littan-Luzern, Switzerland). Extract supernatants, isolated following 15-minute-centrifugation at 15,000 rpm (12,000×g), were lyophilized and stored at −80° C. The lyophilized samples were redissolved in either RIA buffer or calcium mobilization assay buffer prior to ghrelin RIA or calcium mobilization assay, respectively.
as §1, with “Degradation of ghrelin was not observed during the extraction.” left out

[3] = system: n-heptanoyl ghrelin in the stomach; test: Molecular forms of stomach ghrelin after glyceryl triheptanoate ingestion (HPLC, C-RIA and N-RIA); conditions: mice, HPLC, C-RIA / N-RIA
Method: as §1
Male C57BL/6J mice weighing 20-25 g (10-12 week old) were maintained under controlled temperature (21-23° C.) and light conditions (light on 0700-1900) with ad libitum access to food and water. Glyceryl triheptanoate (Fluka Chemie GmbH, Buchs, Switzerland) was mixed with standard laboratory chow at a concentration of 5% (w/w). Four days after mice were fed glyceryl triheptanoate-containing food, stomachs (total 1,000 mg) were recovered from mice (n=7). The total consumption of glyceryl triheptanoate-containing food was approximately 13.5 g/mouse, amounting to 675 mg total glyceryl triheptanoate ingested by each mouse. Stomachs were minced and boiled for 5 minutes in 5× volumes of water to inactivate intrinsic proteases. […]

[4] = system: acyl-modified and total ghrelin in the stomach; test: Stomach ghrelin content after medium- to long-chain triacylglycerol ingestion (N-RIA / C-RIA); conditions: mice, 5% (w/w) in chow, two weeks; for production of acyl-modified ghrelin in stomach tissue: N-RIA
Method: as §2, §1
Orally ingested triacylglycerols are intraluminally hydrolyzed and absorbed through the gastro-intestinal mucosa as free fatty acids or monoglycerides. Thus, ingested triacylglycerols may serve as a source of free fatty acids [D26]. To examine if ingested triacylglycerols are used for acyl-modification of ghrelin, mice were fed chow mixed with 5% (w/w) glyceryl trihexanoate (C6), trioctanoate (C8), tridecanoate (C10), and tripalmintate (C16). After two weeks, gastric peptides were extracted. Ghrelin concentration in the stomach of these mice and in that from mice fed standard laboratory chow (Control) (n=8) are shown. The content of acyl-modified and total ghrelins was measured by N- and C-RIA. […]

Molecule	stomach ghrelin modified by the acyl group corresponding to the ingested lipid ([1]; C-RIA)	total ghrelin concentration in the stomach vs control [2]	gastric concentration of acyl-modified ghrelin vs control ([2]; N-RIA)	production of acyl-modified ghrelin in stomach tissue [4]	also measured
CCCCCCCCCCCC(=O)OCC(COC(=O)CCCCCCCCCCC)OC(=O)CCCCCCCCCCC [trilaurate]	not observed	–	–	–	–
CCCCCC(=O)O [n-hexanoic acid]	increased	No significant changes	No significant changes	–	–
CCCCCCC(=O)O [n-heptanoic acid]	–	–	–	–	appearance of peak b / d (n-heptanoyl ghrelin) immunoreactivity in stomach extracts [3]: also detected
CCCCCC(=O)OCC(COC(=O)CCCCC)OC(=O)CCCCC [glyceryl trihexanoate]	increased drastically	–	–	slightly suppressed	molar ratio of acyl-modified ghrelin/total ghrelin [4]: decreased significantly; C6:0-ghrelin (n-hexanoyl ghrelin) concentration in the stomach [1]: 237.3 ± 35.0^a); C8:0-ghrelin (n-octanoyl ghrelin) concentration in the stomach [1]: 358.0 ± 33.0^b); C10:0-ghrelin (n-decanoyl ghrelin) concentration in the stomach [1]: 14.1 ± 5.2; Des-acyl ghrelin concentration in the stomach [1]: 245.0 ± 11.0; C10:1-ghrelin (n-decenoyl ghrelin) concentration in the stomach [1]: 133.5 ± 12.1^b); n-octanoyl ghrelin concentration in the stomach vs control ([1]; HPLC peak f, C-RIA): significant decreases
CCCCCCCCCCCCC(=O)OCC(O)CO (centres unmarked) [glyceryl tridecanoate]	increased	–	–	no effect	molar ratio of acyl-modified ghrelin/total ghrelin [4]: increased; C6:0-ghrelin (n-hexanoyl ghrelin) concentration in the stomach [1]: 22.1 ± 6.1; C8:0-ghrelin (n-octanoyl ghrelin) concentration in the stomach [1]: 460.0 ± 70.6; C10:0-ghrelin (n-decanoyl ghrelin) concentration in the stomach [1]: 95.1 ± 9.7^a); Des-acyl ghrelin concentration in the stomach [1]: 181.4 ± 31.5^c); C10:1-ghrelin (n-decenoyl ghrelin) concentration in the stomach [1]: 64.5 ± 14.2^b)
CCCCCCCCCCCCCCCC(=O)OCC(COC(=O)CCCCCCCCCCCCCCC)OC(=O)CCCCCCCCCCCCCCC [glyceryl tripalmitate]	not observed	–	–	no effect	–
CCCCCCCC(=O)O [n-octanoic acid]	increased	No significant changes	increased significantly	–	ratio of n-octanoyl ghrelin/total ghrelin [2]: increased; mean concentration of acyl-modified ghrelin in the stomach ([2]; N-RIA, n=8, control 1,795): 2,455 fmol/mg wet weight
CCCCCCCCCC(=O)O [n-decanoic acid]	increased	No significant changes	No significant changes	–	–
n-palmitic acid	–	No significant changes	No significant changes	–	–
CCCC(=O)OCC(COC(=O)CCC)OC(=O)CCC [glyceryl tributyrate]	not observed	–	–	–	–

— patent publication US20080293818A1, “Regulator of Physiological Function of Ghrelin and Use Thereof” (priority 2004, published 2008)
